The record followed here is PubChem BioAssay AID1259411 (Chemical Carcinogenesis Research Information System (CCRIS), 2018).

Each structure is given as a SMILES string. Active and inactive are the calls of the source. How the calls were made is not given here.

The series deals with rodent carcinogenicity bioassays, tumor incidence. In words: CCRIS carcinogenicity studies. The gist of the method:
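Archive of carcinogenicity, mutagenicity, tumor promotion and tumor inhibition results drawn from journals, NCI reports and other sources, expert-reviewed; covers 1985-2011 and is no longer updated.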

Take `Nc1c(Cl)c(Cl)nc(C(=O)O)c1Cl`: the carcinogen call (Species: MOUSE, Strain/Sex: B6C3F1/FEMALE, Route: ORAL, Dose: 0, 2531, 5062 PPM IN DIET FOR 80 WK (STUDY DURATION: 90 WK), Dose: 0, 2531, 5062 PPM IN DIET FOR 80 WK (STUDY DURATION: 90 WK)) is “inactive; negative”; the carcinogen call (Species: MOUSE, Strain/Sex: B6C3F1/MALE, Route: ORAL, Dose: 0, 2531, 5062 PPM IN DIET FOR 80 WK (STUDY DURATION: 90 WK), Dose: 0, 2531, 5062 PPM IN DIET FOR 80 WK (STUDY DURATION: 90 WK)) is “inactive; negative”; the carcinogen call (Species: RAT, Strain/Sex: F344/FEMALE, Route: ORAL, Dose: 0, 20, 60, 200 MG/KG/D OF TECHNICAL GRADE PICLORAM IN FEED FOR 2 YR (STUDY DURATION: 2 YR), Dose: 0, 20, 60, 200 MG/KG/D OF TECHNICAL GRADE PICLORAM IN FEED FOR 2 YR (STUDY DURATION: 2 YR)) is “inactive; negative”; the carcinogen call (Species: RAT, Strain/Sex: F344/MALE, Route: ORAL, Dose: 0, 20, 60, 200 MG/KG/D OF TECHNICAL GRADE PICLORAM IN FEED FOR 2 YR (STUDY DURATION: 2 YR), Dose: 0, 20, 60, 200 MG/KG/D OF TECHNICAL GRADE PICLORAM IN FEED FOR 2 YR (STUDY DURATION: 2 YR)) was “inactive; negative”; the carcinogen call (Species: RAT, Strain/Sex: OSBORNE-MENDEL/FEMALE, Route: ORAL, Dose: 0, 7437, 14875 PPM IN DIET FOR 80 WK (STUDY DURATION: 113 WK), Dose: 0, 7437, 14875 PPM IN DIET FOR 80 WK (STUDY DURATION: 113 WK), Tumor Site: Type of Lesion: LIVER: NEOPLASTIC NODULE) is “equivocal”; the carcinogen call (Species: RAT, Strain/Sex: OSBORNE-MENDEL/MALE, Route: ORAL, Dose: 0, 7437, 14875 PPM IN DIET FOR 80 WK (STUDY DURATION: 113 WK), Dose: 0, 7437, 14875 PPM IN DIET FOR 80 WK (STUDY DURATION: 113 WK)) is “inactive; negative”.
For `CCOP(=S)(OCC)Oc1cc(C)nc(C(C)C)n1`, the carcinogen call (Species: MOUSE, Strain/Sex: B6C3F1/FEMALE, Route: ORAL, Dose: 0, 100, 200 PPM IN DIET, Dose: 0, 100, 200 PPM IN DIET) was “inactive; negative”; the carcinogen call (Species: MOUSE, Strain/Sex: B6C3F1/MALE, Route: ORAL, Dose: 0, 100, 200 PPM IN DIET, Dose: 0, 100, 200 PPM IN DIET) was “inactive; negative”; the carcinogen call (Species: RAT, Strain/Sex: F344/FEMALE, Route: ORAL, Dose: 0, 400, 800 PPM IN DIET, Dose: 0, 400, 800 PPM IN DIET) is “inactive; negative”; the carcinogen call (Species: RAT, Strain/Sex: F344/MALE, Route: ORAL, Dose: 0, 400, 800 PPM IN DIET, Dose: 0, 400, 800 PPM IN DIET) is “inactive; negative”.
For `C#C[C@]1(O)CC[C@H]2[C@@H]3CCc4cc(OC)ccc4[C@H]3CC[C@@]21C`, the carcinogen call (Species: MOUSE, Route: ORAL, Tumor Site: Type of Lesion: MAMMARY GLAND, PITUITARY GLAND) is “active; positive” and the carcinogen call (Species: RAT, Route: ORAL, Tumor Site: Type of Lesion: MAMMARY GLAND) was “active; positive”.
With `CC[C@H]1NC(=O)[C@@H]2[C@H](Cl)[C@H](Cl)CN2C(=O)[C@@H](CO)NC(=O)C[C@H](c2ccccc2)NC(=O)[C@H](CO)NC1=O`, the carcinogen call (Species: MOUSE, Strain/Sex: DDNI/MALE, Route: ORAL, Dose: 0, 40, 60 UG IN DIET, 1/D FOR LIFE, Dose: 0, 40, 60 UG IN DIET, 1/D FOR LIFE, Tumor Site: Type of Lesion: HEMATOPOIETIC SYSTEM: RETICULOENDOTHELIOMA, LIVER: CARCINOMA, HEPATOCELLULAR ADENOMA) was “active; positive”.
In the case of `CCOC(=O)C(C)Oc1ccc(Oc2nc3ccc(Cl)cc3o2)cc1` (configuration not stated), the carcinogen call runs as follows: (Species: Mouse, Strain/Sex: Strain not given in source/Female (50/Group), Route: Oral, Dose: 0, 2.5, 10, 40 ppm in diet for 24 mo, study duration 24 mo, Dose: 0, 2.5, 10, 40 ppm in diet for 24 mo, study duration 24 mo) “inactive; negative”; (Species: Mouse, Strain/Sex: Strain not given in source/Male (50/Group), Route: Oral, Dose: 0, 2.5, 10, 40 ppm in diet for 24 mo, study duration 24 mo, Dose: 0, 2.5, 10, 40 ppm in diet for 24 mo, study duration 24 mo) “inactive; negative”; (Species: Rat, Strain/Sex: Strain not given in source/Female (60/Group), Route: Oral, Dose: 0, 5, 30, 180 ppm (0; 0.33; 2.00; 11.87 mg/kg) in diet for up to 28 mo, study duration 28 mo, Dose: 0, 5, 30, 180 ppm (0; 0.33; 2.00; 11.87 mg/kg) in diet for up to 28 mo, study duration 28 mo) “inactive; negative”; (Species: Rat, Strain/Sex: Strain not given in source/Male (60/Group), Route: Oral, Dose: 0, 5, 30, 180 ppm (0; 0.26; 1.58; 9.43 mg/kg) in diet for up to 28 mo, study duration 28 mo, Dose: 0, 5, 30, 180 ppm (0; 0.26; 1.58; 9.43 mg/kg) in diet for up to 28 mo, study duration 28 mo) “inactive; negative”.
As to `CCCN(CCC)C(=O)SCC`, the carcinogen call by setting is: (Species: Mouse, Strain/Sex: Crl:CD-1/Female (60/Group), Route: Oral, Dose: 0, 200, 600, 1800 ppm in diet for 73 wks, study duration 73 wks, Dose: 0, 200, 600, 1800 ppm in diet for 73 wks, study duration 73 wks) “inactive; negative”; (Species: Mouse, Strain/Sex: Crl:CD-1/Male (60/Group), Route: Oral, Dose: 0, 200, 600, 1800 ppm in diet for 73 wks, study duration 73 wks, Dose: 0, 200, 600, 1800 ppm in diet for 73 wks, study duration 73 wks) “inactive; negative”; (Species: Rat, Strain/Sex: Crl:CD (SD) BR/Female (90/Group), Route: Oral, Dose: 0, 9, 18, 36, 72 mg/kg/day in diet for 2 yr, study duration 2 yr, Dose: 0, 9, 18, 36, 72 mg/kg/day in diet for 2 yr, study duration 2 yr) “inactive; negative”; (Species: Rat, Strain/Sex: Crl:CD (SD) BR/Male (90/Group), Route: Oral, Dose: 0, 9, 18, 36, 72 mg/kg/day in diet for 2 yr, study duration 2 yr, Dose: 0, 9, 18, 36, 72 mg/kg/day in diet for 2 yr, study duration 2 yr) “inactive; negative”.
In the case of `O=c1c(O[C@@H]2O[C@H]([C@H](O)CO)[C@H](O)[C@H]2O)c(-c2ccc(O)c(O)c2)oc2cc(O)cc(O)c12`, the carcinogen call (Species: RAT, Strain/Sex: F344 DUCRJ/FEMALE (50/GROUP), Route: ORAL, DIET, Dose: 119.2, 352.8 MG/KG DAILY FOR 104 WK (STUDY DURATION: 104 WK), TEST MATERIAL WAS ENZYMATICALLY MODIFIED, Dose: 119.2, 352.8 MG/KG DAILY FOR 104 WK (STUDY DURATION: 104 WK), TEST MATERIAL WAS ENZYMATICALLY MODIFIED, Tumor Site: Type of Lesion: NONE) was “inactive; negative” and the carcinogen call (Species: RAT, Strain/Sex: F344 DUCRJ/MALE (50/GROUP), Route: ORAL, DIET, Dose: 142.5, 431.1 MG/KG DAILY FOR 104 WK (STUDY DURATION: 104 WK), TEST MATERIAL WAS ENZYMATICALLY MODIFIED, Dose: 142.5, 431.1 MG/KG DAILY FOR 104 WK (STUDY DURATION: 104 WK), TEST MATERIAL WAS ENZYMATICALLY MODIFIED, Tumor Site: Type of Lesion: NONE) is “inactive; negative”.
On to `CC(C)(c1ccc(O)cc1)c1ccc(O)cc1` (tested in a mixture with another compound), for which the carcinogen call was “active; positive” (Species: MOUSE, Strain/Sex: CF-1/FEMALE, Route: DERMAL, Dose: 0, 1, 10% EPIKOTE 828 IN ACETONE (TOTAL DOSE 0.2 ML) 2/WK APPLIED TO DORSAL SKIN FOR DURATION OF STUDY (STUDY DURATION:, Dose: 0, 1, 10% EPIKOTE 828 IN ACETONE (TOTAL DOSE 0.2 ML) 2/WK APPLIED TO DORSAL SKIN FOR DURATION OF STUDY (STUDY DURATION:, Tumor Site: Type of Lesion: HEMATOPOIETIC SYSTEM: RETICULUM-CELL SARCOMA, LYMPHOBLASTIC LYMPHOSARCOMA); “inactive; negative” (Species: MOUSE, Strain/Sex: CF-1/FEMALE, Route: DERMAL, Dose: 0, 1, 10% EPON 828 IN ACETONE (TOTAL DOSE 0.2 ML) 2/WK APPLIED TO DORSAL SKIN FOR DURATION OF STUDY (STUDY DURATION: 2 Y, Dose: 0, 1, 10% EPON 828 IN ACETONE (TOTAL DOSE 0.2 ML) 2/WK APPLIED TO DORSAL SKIN FOR DURATION OF STUDY (STUDY DURATION: 2 Y); “inactive; negative” (Species: MOUSE, Strain/Sex: CF-1/MALE, Route: DERMAL, Dose: 0, 1, 10% EPIKOTE 828 IN ACETONE (TOTAL DOSE 0.2 ML) 2/WK APPLIED TO DORSAL SKIN FOR DURATION OF STUDY (STUDY DURATION:, Dose: 0, 1, 10% EPIKOTE 828 IN ACETONE (TOTAL DOSE 0.2 ML) 2/WK APPLIED TO DORSAL SKIN FOR DURATION OF STUDY (STUDY DURATION:); “inactive; negative” (Species: MOUSE, Strain/Sex: CF-1/MALE, Route: DERMAL, Dose: 0, 1, 10% EPON 828 IN ACETONE (TOTAL DOSE 0.2 ML) 2/WK APPLIED TO DORSAL SKIN FOR DURATION OF STUDY (STUDY DURATION: 2 Y, Dose: 0, 1, 10% EPON 828 IN ACETONE (TOTAL DOSE 0.2 ML) 2/WK APPLIED TO DORSAL SKIN FOR DURATION OF STUDY (STUDY DURATION: 2 Y).
